{
  "source": "patent US20130184310A1",
  "about": "“TREATMENT OF LUPUS ARTHRITIS USING LAQUINIMOD” (Teva Pharmaceutical Industries, Ltd., priority 2010, published 2013)",
  "key": {"[1]": {"test_system": "(NZBxNZW)F1 mouse model of SLE", "details": "MTX 35 μg/mouse p.o. 3 times a week; for immune complex deposition (ICD) in kidney glomeruli: end of experiment (12 weeks) vs vehicle; for immune complex deposition (ICD) in kidney glomeruli / proteinuria (PU): laquinimod 25 mg/kg p.o. daily, CTX 25 mg/ig i.p. once weekly; for proteinuria (PU): week 12 observation vs vehicle (water)", "experimental": "(NZBxNZW)F1 are lupus-prone mice that develop an SLE-like disease spontaneously including anti-dsDNA antibodies (Abs), proteinuria and Immune Complex Deposits (ICD).\nIn a number of studies, the effect of various doses of laquinimod in the (NZBxNZW)F1 model for SLE were assessed. The studies also included a negative control (water) and positive controls including cyclophosphamide (CTX) and methotrexate (MTX).\nThis study investigated the effect of laquinimod, an immunomodulator of SLE in a murine model of SLE and compared the treatment effect to reference substances CTX and MTX.\nLaquinimod and reference compounds CTX and MTX were applied in therapeutic mode, starting the treatment at the time when the characteristic change of murine SLE model, proteinuria (PU) was present in >80% of animals, and the observation and treatment period following this was 12 weeks. Laquinimod was applied p.o. daily, in a dose of 25 mg/kg. CTX was applied once weekly in a dose of 25 mg/ig i.p. MTX was applied 3 times a week p.o. at 35 μg/mouse.\nAlso, body weight changes were recorded weekly and at the end of experiment both kidneys were preserved, one for possible conventional histology and one for immune complex detection *ICD) in glomeruli. Evaluation of ICD was performed by scoring and by image analysis.\n80 animals were involved in the study."}, "[2]": {"test_system": "MRL/lpr lupus mouse model", "experiment": "Non-GLP in vivo evaluation of laquinimod in the MRL/lpr lupus mouse model (Example 1.4)", "details": "for kidney glomerulonephritis (histopathology) / salivary gland inflammation (histopathological scoring): laquinimod 5 mg/kg p.o., MMF 100 mg/kg p.o., compared to vehicle", "description": "This study evaluates the efficacy of laquinimod in the MRL/lpr lupus mouse model.\nAnimals were monitored until their urine proteinuria reached >200 mg/dL at which time they were enrolled in the study. Animals were dosed with either 1 or 5 mg/kg of laquinimod, p.o., 100 mg/kg mycophenolate mofetil (MMF, CellCept®) p.o., or vehicle (water DDW), p.o., daily except weekends.\nProteinuria, ankle and paw diameters, dsDNA autoantibody levels and survival were monitored during in life portion of the study. At termination, blood samples were harvested for determination of dsDNA autoantibody levels, spleens were harvested and weighed then processed to isolate splenocytes which were counted. Kidney, lung, skin, lymph node, salivary gland and joints were harvested, processed for histological examination and scored by a histopathologist blind to the treatments."}, "(NZBxNZW)F1 mice [3]": {"test_system": "(NZBxNZW)F1 mice", "experiment": "Survival dose response study of laquinimod in the (NZBxNZW)F1 model for SLE, 37 weeks (Example 1.2)", "format": "in vivo, mouse", "description": "This was a survival dose response study to determine whether laquinimod is effective in suppressing the symptoms in (NZBxNZW)F1 mice. The positive control used was Cytoxan.\nSeventy-one mice having spontaneous disease developed by the age of 7 months (as measured by proteinuria) were divided into 6 experimental groups (Water, CTX, Laquinimod 0.2 mg/kg, Laquinimod 1.0 mg/kg, Laquinimod 5.0 mg/kg, Laquinimod 25.0 mg/kg) according to their PU scores.\nWater and Laquinimod were administered orally (200 μl/mouse) 5 days a week. CTX was administered intraperitonealy once weekly, (200 μl/mouse). Blood samples were collected on weeks 1, 5, 15 and 37. Serum samples were prepared for detection of anti-dsDNA antibodies. After 37 weeks (257 days) of treatment, mice were sacrificed."}, "(NZBxNZW)F1 mice [4]": {"test_system": "(NZBxNZW)F1 mice", "experiment": "Confirmation of efficacy of laquinimod in the (NZBxNZW)F1 model for SLE, 13 weeks (Example 1.3)", "format": "in vivo, mouse", "description": "This study examined the effect of laquinimod (0.2 and 5 mg/kg) versus CTX and vehicle treated (NZBxNZZW)F1 mice. Seventy mice having spontaneous disease developed by the age of 7 months (as measured by proteinuria) were divided into 4 experimental groups (Water, CTX, Laquinimod 0.2 mg/kg, Laquinimod 5.0 mg/kg,) according to their PU scores. Water and Laquinimod were administered orally (200 μl/mouse) 5 days a week. CTX was administered intraperitonealy once weekly, (200 μl/mouse). Blood samples were collected on weeks 1, 5, and 11. Serum samples were prepared for detection of anti-dsDNA antibodies. After 13 weeks of treatment, mice were sacrificed and immune complex deposits in their kidneys were evaluated."}, "[5]": {"test_system": "Systemic Lupus Erythematosus (SLE) patients with active lupus arthritis", "experiment": "Phase IIa randomized, double-blind, placebo-controlled clinical trial of laquinimod in lupus arthritis (Example 2)", "format": "in vivo, human", "details": "daily oral 0.5 mg or 1 mg", "description": "A multicenter, randomized, double-blind, placebo controlled clinical trial is conducted to evaluate the safety, tolerability, biomarkers and clinical effect of laquinimod (0.5 mg/day and 1 mg/day) in Systemic Lupus Erythematosus (SLE) patients with active lupus arthritis.\nApproximately 90 Systemic Lupus Erythematosus patients with active lupus arthritis are enrolled. (approximately 30 subjects per treatment arm). Drop-outs are not replaced.\nThe overall study duration is up to 20 weeks, with the screening period being up to 2 weeks, the treatment period being 12 weeks and the follow-up period being 4 weeks.\nCapsules containing laquinimod 0.5 mg and/or matching placebo are administered orally once daily: • 1. Laquinimod 0.5 mg arm—1 capsule of laquinimod 0.5 mg and 1 matching placebo capsule. • 2. Laquinimod 1 mg arm—2 capsules of laquinimod 0.5 mg. • 3. Placebo arm—2 capsules of placebo.\nThis is a Phase IIa, randomized, double-blind, placebo-controlled, study to assess the safety, tolerability, pharmacokinetics, biomarkers and clinical effect of two doses of laquinimod in Systemic Lupus Erythematosus patients with active lupus arthritis. This study evaluates the safety, tolerability of two doses of laquinimod (0.5 mg and 1 mg/day) in Systemic Lupus Erythematosus patients with active lupus arthritis. This study also evaluates biomarkers and clinical effect of laquinimod (0.5 mg and 1 mg/day) in Systemic Lupus Erythematosus patients with active lupus arthritis.\nSubjects are initially randomized in a 1:1 ratio into one of the following two treatment arms: • 1. Laquinimod 0.5 mg. • 2. Matching placebo.\nEnrollment to the 1 mg laquinimod dose group is initiated following the approval of the study safety committee, based on data of at least 10 subjects who have completed at least 4 weeks of treatment. Upon approval, randomization into one of the following three treatment arms occurs in a ratio that allows for reaching an overall target enrollment of approximately 30 subjects per treatment arm. • 1. Laquinimod 0.5 mg. • 2. Laquinimod 1 mg. • 3. Matching placebo.\nScheduled in-clinic visits are conducted at screening, baseline and at weeks 2, 4, 8, 12 and 16.\nTreatment with laquinimod/placebo is discontinued on visit week 12 and a follow-up/study completion visit is conducted at week 16. Subjects who early discontinued study drug prior to visit week 12 preferably attend a follow-up study completion visit within 4 weeks (28 days) of treatment termination visit.\nDuring the study period the British Isles Lupus Assessment Group (BILAG) score, SLE Disease Activity Index (SLEDAI 2K), Swollen and Tender joint count, Patient Global Assessment score (PGA), Evaluator Global Assessment score (EGA) and Patient Pain assessment (PtP) are assessed in addition to routine safety laboratory and physical tests, PK analysis and disease related immunology tests/biomarkers.\nResponse Definitions • BILAG MSK response is defined as change from Musculoskeletal A or B at baseline to C or D at LOV. • BILAG Substantial Responder (SR) is defined as all systems at last observed value (LOV) are C or D/E providing at least one system is A or B at baseline. • SLEDAI 2K response—decrease in SLEDAI of at least 4 point compared to baseline • Medicinal/Interventional flare defined as any of the following • Steroid increase by at least 5 mg/day compared to previous dose or compared to baseline or any IV, IM or Intraarticular dose. • New continuous treatment (>3 days) or increase in dose of NSAIDs or COX2 inhibitors. • New treatment or dose increase with an immunosuppressive drug compared to previous dose or compared to baseline. • Treatment with biologic agents, IVIG or plasmapheresis. • New treatment or dose increase of antimalarial drugs compared to previous dose or compared to baseline.\nLupus Arthritis • 1. […]"}, "[6]": {"details": "laquinimod low dose 0.2 mg/kg orally 5 days a week"}, "[7]": {"details": "laquinimod 5 mg/kg p.o. compared to vehicle"}, "[8]": {"details": "study period, compared to placebo"}},
  "data": [
    {"smiles": "O=P1(N(CCCl)CCCl)NCCCO1", "note": "(stereo not drawn) [CTX, cyclophosphamide]", "values": [
      {"measurement": "immune complex deposition (ICD) in kidney glomeruli", "setting": "[1]", "result": "significantly inhibited"},
      {"measurement": "proteinuria (PU)", "setting": "[1]", "result": "significantly diminished the proteinuria"}
    ]},
    {"smiles": "COc1c(C)c2c(c(O)c1C/C=C(\\C)CCC(=O)OCCN1CCOCC1)C(=O)OC2", "note": "[MMF, mycophenolate mofetil, reference compound]", "values": [
      {"measurement": "lung BALT hyperplasia (histopathology)", "setting": "[2]; MMF 100 mg/kg p.o. vs vehicle", "result": "significant difference"},
      {"measurement": "kidney glomerulonephritis (histopathology)", "setting": "[2]", "result": "significant reductions"},
      {"measurement": "salivary gland inflammation (histopathological scoring)", "setting": "[2]", "result": "significant reduction"}
    ]},
    {"smiles": "CN(Cc1cnc2nc(N)nc(N)c2n1)c1ccc(C(=O)N[C@@H](CCC(=O)O)C(=O)O)cc1", "note": "[MTX, methotrexate]", "values": [
      {"measurement": "animals died during the treatment period", "setting": "[1]; 12 week treatment period, 80 animals in study", "result": 2},
      {"measurement": "immune complex deposition (ICD) in kidney glomeruli", "setting": "[1]", "result": "failed to inhibit the symptoms"},
      {"measurement": "proteinuria (PU)", "setting": "[1]", "result": "failed to inhibit the symptoms"}
    ]},
    {"smiles": "CCN(C(=O)c1c(O)c2c(Cl)cccc2n(C)c1=O)c1ccccc1", "note": "[laquinimod]", "values": [
      {"measurement": "progression of proteinuria", "setting": "(NZBxNZW)F1 mice [3]; all doses of laquinimod (0.2, 1.0, 5.0, 25.0 mg/kg) orally 5 days a week, in comparison to vehicle", "result": "abrogated the progression of proteinuria"},
      {"measurement": "survival", "setting": "(NZBxNZW)F1 mice [3]; all doses of laquinimod (0.2-25 mg/kg), 37 weeks of treatment", "result": "significant prolongation of survival"},
      {"measurement": "proteinuria", "setting": "(NZBxNZW)F1 mice [3]; laquinimod dose of 0.2 mg/kg orally 5 days a week", "result": "abrogated proteinuria but not to the same extent as compared to the higher doses"},
      {"measurement": "proteinuria, compared with positive control CTX", "setting": "(NZBxNZW)F1 mice [3]; laquinimod doses of 1, 5 and 25 mg/kg orally 5 days a week", "result": "as effective as the positive control cyclophosphamide (CTX)"},
      {"measurement": "anti-dsDNA levels", "setting": "(NZBxNZW)F1 mice [3]; serum, weeks 1, 5, 15 and 37, laquinimod 0.2-25 mg/kg", "result": "dose dependent reduction in antibody levels over time"},
      {"measurement": "anti-dsDNA levels", "setting": "(NZBxNZW)F1 mice [4]; laquinimod 5 mg/kg orally 5 days a week", "result": "behaved similarly to the positive control CTX"},
      {"measurement": "immune complex deposits in kidneys", "setting": "(NZBxNZW)F1 mice [4]; laquinimod 5 mg/kg orally 5 days a week, after 13 weeks", "result": "behaved similarly to the positive control CTX"},
      {"measurement": "disease progression as measured by proteinuria", "setting": "(NZBxNZW)F1 mice [4]; laquinimod 0.2 and 5 mg/kg orally 5 days a week, 13 weeks", "result": "abrogated disease progression"},
      {"measurement": "anti-dsDNA Ab titers", "setting": "(NZBxNZW)F1 mice [4]; [6]", "result": "did not inhibit"},
      {"measurement": "proteinuria", "setting": "(NZBxNZW)F1 mice [4]; [6]", "result": "prevented increased proteinuria"},
      {"measurement": "ICD (immune complex deposits)", "setting": "(NZBxNZW)F1 mice [4]; laquinimod low dose 0.2 mg/kg orally 5 days a week, after 13 weeks", "result": "did not inhibit"},
      {"measurement": "bone resorption (joint histopathology)", "setting": "[2]; both doses of laquinimod (1 and 5 mg/kg p.o.) compared to vehicle", "result": "Significant reductions"},
      {"measurement": "salivary gland inflammation score, higher dose vs lower dose", "setting": "[2]; laquinimod 5 mg/kg compared with 1 mg/kg", "result": "significantly lower score"},
      {"measurement": "cartilage damage (joint histopathology)", "setting": "[2]; [7]", "result": "significant reduction"},
      {"measurement": "joint inflammation (histopathology)", "setting": "[2]; [7]", "result": "significantly reduced"},
      {"measurement": "splenocytes as percent of total spleen cells", "setting": "[2]; [7]", "result": "significant reduction"},
      {"measurement": "kidney glomerulonephritis (histopathology)", "setting": "[2]", "result": "significant reductions"},
      {"measurement": "salivary gland inflammation (histopathological scoring)", "setting": "[2]", "result": "significant reduction"},
      {"measurement": "measures during the in life phase (proteinuria, ankle and paw diameters, dsDNA autoantibody levels, survival)", "setting": "[2]; laquinimod 1 or 5 mg/kg p.o., trends not significant except for some sporadic time points", "result": "trend toward dose dependent efficacy"},
      {"measurement": "tolerability", "setting": "[5]; compared to placebo", "result": "well tolerated"},
      {"measurement": "toxicity", "setting": "[5]; compared to placebo", "result": "no toxicity"},
      {"measurement": "66 swollen/68 tender joint count (JC66/68)", "setting": "[5]; study period", "result": "reduces"},
      {"measurement": "C-Reactive Protein level", "setting": "[5]; study period", "result": "lowers"},
      {"measurement": "Disease Activity Score using 28 joint counts (DAS28)", "setting": "[5]; study period", "result": "reduces"},
      {"measurement": "anti-dsDNA level", "setting": "[5]; study period", "result": "lowers"},
      {"measurement": "physician global assessment (PGA) score", "setting": "[5]; study period", "result": "reduces"},
      {"measurement": "serum chemokine level", "setting": "[5]; study period", "result": "lowers"},
      {"measurement": "serum cytokine level", "setting": "[5]; study period", "result": "lowers"},
      {"measurement": "BILAG MSK response", "setting": "[5]; [8]", "result": "improves"},
      {"measurement": "BILAG score", "setting": "[5]; [8]", "result": "improves"},
      {"measurement": "swollen joint count", "setting": "[5]; [8]", "result": "reduces"},
      {"measurement": "tender joint count", "setting": "[5]; [8]", "result": "reduces"},
      {"measurement": "immune complex deposition (ICD) in kidney glomeruli", "setting": "[1]", "result": "significantly inhibited"},
      {"measurement": "proteinuria (PU)", "setting": "[1]", "result": "significantly diminished the proteinuria"}
    ]}
  ]
}
